Results: US7553667B2, “Regulation of gene expression using chromatin remodelling factors” (Her Majesty the Queen in right of Canada as represented by …, priority 2002, dated 2009)

Legend:
[1] = system: BnSCL1 gene expression; test: Quantitative one-step RT-PCR of BnSCL1 expression in treated seedlings; type: in vivo, Brassica napus; settings: 10 mM for 24 h, then 2,4-D 10^-6 to 10^3 μM
Method: In exogenous applied auxin treatments, four-leaf stage seedlings grown at 20° C. were treated with a foliar spray containing 1 mM 2,4-D and 50 mM sodium phosphate, pH 7.5. The four leaves were collected at 30 min, 60 min and 180 min after the first foliar application of 2,4-D. For the measurement of response of shoots and roots to auxin, sterilized seeds were germinated on plates in a growth chamber with continuous light at 20° C., and 10 dpg seedlings were supplied with varied concentration of 2,4-D. In the auxin transport inhibition experiments, 9 dpg seedlings were incubated in the medium supplemented with 50 μM NPA dissolved in 0.1% DMSO for 24 h before the 2,4-D treatment. For the HDAC inhibitor treatments, 10 mM sodium butyrate was added onto the growth medium and incubated for 24 h followed by exogenous 2,4-D application at varied concentrations.
Total RNA extracted as described above was treated with Amplification Grade Deoxyribonuclease I (GibcoL BRL) following the manufacture's instructions. The RNA samples were then directly used for reverse transcription prior to amplification without purification. The RT-PCR was quantitatively performed and completed in a one-step reaction using […] One-Step RT-PCR System (GibcoL BRL) as described by Gao et al. (2002). Gene-specific sense and anti-sense primers used to generate a 960 bp fragment of Brassica napus Actin, as an internal standard, were as described in Gao et al., (2002). Gene-specific primers for the generation of BnSCL1, BnIAA1 and BnIAA12 fragments were as follows: […]

[2] = system: auxin-inducible GUS expression; settings: seedlings, up to 1 mM for 24 h; cited from earlier work

CCCC(=O)[O-].[Na+] [sodium butyrate]
BnSCL1 expression profile in shoots and roots in response to auxin after HDAC inhibition [1]: upregulated by auxin at concentration of 1 pM and downregulated by auxin at higher concentrations | effect on auxin-inducible GUS expression [2]: no effect
